# Source: US20060293378A1, “Method of lowering intraocular pressure” (priority 2005, published 2006)
# System: intraocular pressure
# Test: Intraocular pressure in rabbits after injection of an aqueous suspension into the right eye, compared with untreated left eyes
# Format: in vivo
# Conditions: suspension of 2 mg/mL compound with 7.5 mg/mL sodium carboxymethylcellulose injected into right eyes, dosages 60 μg, 100 μg and 140 μg, versus untreated left eyes, maintained over the 14 days of the test, FIGS. 1 to 3
# Protocol: An aqueous suspension was produced containing 2 mg/mL of compound 21 illustrated above together with 7.5 mg/mL of sodium carboxymethylcellulose.
compound,measurement,value
CC(C)OCc1ccc2c(c1)c1c3c(c4c(c1n2CCCOC(=O)CN(C)C)Cc1ccccc1-4)C(=O)NC3 [Compound 21],effect on intraocular pressure over time,significantly increased lowering of intraocular pressure
